Key:
CDK5/p35 = target: T1, CDK5/p35 (Homo sapiens, UniProt Q00535); assay: Kinase selectivity screen (enzymatic radioactive assay, Eurofins Cerep); format: biochemical; settings: 1.0 μM compound, Km ATP
T1 construct: purchased Eurofins Cerep SA (contract assay service)
Excerpt: (§1) The potent GSK-3β inhibitor 16b was next subjected to kinase selectivity assay. A panel of kinases which were structurally related to GSK-3β was used for the GSK-3β selectivity studies[26]^,[37]^,[38]. […] GSK-3α and GSK-3β are known to share a 98% sequence homology at the catalytic site[42]. CDK5 and GSK-3 belong to the CMGC protein kinase family, which shared highly homology with each other[43]^,[44]. CDK5 is known abnormally activated and also responsible for the tau hyperphosphorylation in AD[45]. It was known that Aβ could increase CK2 activity, which in turn accelerated the tau phosphorylation in AD[46]. Therefore, the inhibition of CDK5 and CK2 by 16b may be beneficial for its anti-AD activities.
(§2) Figure 3. Effects of compound 16b on the activities of 21 protein kinases in vitro. Protein kinases were of human origin and assayed in the presence of 1.0 μM compound 16b or vehicle (DMSO). The enzymatic activity was measured in the presence of Km ATP. Kinase activities were given as the mean of twice determinations. AMPKα1, AMP-activated protein kinase 1; AMPKα2, AMP-activated protein kinase 2; CDK4/cyclinD3, cyclin-dependent protein kinase-4/cyclinD3; CDK5/p35, cyclin-dependent protein kinase-5/p35; CHK1, checkpoint kinase-1; CK2, casein kinase-2; Lck, lymphocyte kinase; MSK1, mitogen- and stress-activated protein kinase-1; p70S6K, p70 ribosomal protein S6 kinase; PDK1, 3-phosphoinositide-dependent protein kinase-1; PKA, cAMP-dependent protein kinase; PKBα, protein kinase Bα; PKCα, protein kinase Cα; PRAK, p38-regulated/activated kinase; SAPK2a, stress-activated protein kinase-2a; SAPK2b, stress-activated protein kinase-2b; SAPK3, stress-activated protein kinase-3; SAPK4, stress-activated protein kinase-4; SGK, serum- and glucocorticoid-induced protein kinase.
(§3) Compound 16b was evaluated for kinase selectivity at Eurofins Cerep SA (Celle-L’Evescault, France) in enzymatic radioactive assays in a panel of 21 different kinases (including GSK-3β) from diverse families. […] The enzymatic activity was measured in the presence of Km ATP.

GSK-3α = target: T2, GSK-3α (Homo sapiens, UniProt P49840); assay: as above; format: biochemical; settings: 1.0 μM compound, Km ATP
T2 construct: purchased Eurofins Cerep SA (contract assay service)
T2 sequence (P49840 whole entry): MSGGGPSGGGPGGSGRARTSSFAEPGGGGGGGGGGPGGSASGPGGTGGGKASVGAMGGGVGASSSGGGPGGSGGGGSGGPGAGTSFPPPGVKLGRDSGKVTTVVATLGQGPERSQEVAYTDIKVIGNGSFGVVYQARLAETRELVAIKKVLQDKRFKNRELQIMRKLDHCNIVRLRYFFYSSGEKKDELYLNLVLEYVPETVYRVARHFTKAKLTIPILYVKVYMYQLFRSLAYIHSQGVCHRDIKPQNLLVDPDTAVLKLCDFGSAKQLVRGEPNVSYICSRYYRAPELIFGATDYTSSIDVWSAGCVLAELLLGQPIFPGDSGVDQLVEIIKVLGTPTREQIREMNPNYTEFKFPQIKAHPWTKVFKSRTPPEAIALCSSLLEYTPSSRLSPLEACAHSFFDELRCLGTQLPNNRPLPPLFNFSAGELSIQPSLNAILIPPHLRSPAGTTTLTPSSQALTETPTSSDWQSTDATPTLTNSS
Excerpt: as §1, §2, §3

CK2 = target: T3, CK2 (Homo sapiens, UniProt P68400); assay: as above; format: biochemical; settings: 1.0 μM compound, Km ATP
T3 construct: purchased Eurofins Cerep SA (contract assay service)
T3 sequence (P68400 whole entry): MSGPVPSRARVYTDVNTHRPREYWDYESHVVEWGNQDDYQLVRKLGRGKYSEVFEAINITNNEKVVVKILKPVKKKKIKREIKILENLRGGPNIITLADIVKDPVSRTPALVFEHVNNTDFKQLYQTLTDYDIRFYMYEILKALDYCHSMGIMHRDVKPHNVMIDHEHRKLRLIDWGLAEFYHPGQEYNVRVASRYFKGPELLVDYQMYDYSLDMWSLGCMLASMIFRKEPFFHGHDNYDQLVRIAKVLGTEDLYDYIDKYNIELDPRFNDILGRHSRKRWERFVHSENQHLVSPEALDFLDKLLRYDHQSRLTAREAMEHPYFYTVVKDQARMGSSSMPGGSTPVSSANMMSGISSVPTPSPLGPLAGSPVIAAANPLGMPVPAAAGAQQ
Excerpt: as §1, §2, §3

[1] = tested on: tau phosphorylation at Ser396; assay: Inhibition of Aβ-induced tau hyperphosphorylation (Western blot) in SH-SY5Y cells; format: cell-based, human; settings: 20 μM Aβ25-35 stimulated (Aβ25-35 alone 0.83)
Description: GSK-3β phosphorylates tau at sites (Ser199, Ser396, and Ser443), and the hyperphosphorylated tau aggregate into NFTs in AD[63]. Inhibition of GSK-3β could reduce tau hyperphosphorylation. Therefore, the cell-based assay examining Aβ-induced tau phosphorylation at Ser396 represents a direct functional assay to measure the cellular activity of GSK-3β inhibitors. To investigate the effect of 16b on tau phosphorylation, Western blot analysis was carried out to check Aβ-induced tau protein hyperphosphorylation at Ser396 in SH-SY5Y cells, using LiCl as the control. […] At the concentration of 5 μM, 10 μM and 20 μM, 16b decreased the phosphorylation tau level to 0.70, 0.52, 0.40, respectively.
Figure 7. Inhibition of Aβ-induced tau phosphorylation by 16b in SH-SY5Y cells. Values are reported as the mean ± SD of three independent experiments. *p < 0.05, **p < 0.01, ***p < 0.001 vs control.
SH-SY5Y cells were seeded in 12-well plates until 80% confluence, serum-deprived for 12 h. Cells were pre-incubated with compound 16b or LiCl for 1 h, thereafter stimulated with Aβ25–35 (Sigma) for another 6 h. According to the previously reported method[64]^,[75], the phosphorylated tau was determined.

GSK-3β = GSK-3β (Homo sapiens, UniProt P49841); assay: GSK-3β kinase assay (calliper mobility shift assay); format: biochemical; settings: mean ± SD from two separate experiments; calliper mobility shift assay
Chain of GSK-3β (P49841 whole entry): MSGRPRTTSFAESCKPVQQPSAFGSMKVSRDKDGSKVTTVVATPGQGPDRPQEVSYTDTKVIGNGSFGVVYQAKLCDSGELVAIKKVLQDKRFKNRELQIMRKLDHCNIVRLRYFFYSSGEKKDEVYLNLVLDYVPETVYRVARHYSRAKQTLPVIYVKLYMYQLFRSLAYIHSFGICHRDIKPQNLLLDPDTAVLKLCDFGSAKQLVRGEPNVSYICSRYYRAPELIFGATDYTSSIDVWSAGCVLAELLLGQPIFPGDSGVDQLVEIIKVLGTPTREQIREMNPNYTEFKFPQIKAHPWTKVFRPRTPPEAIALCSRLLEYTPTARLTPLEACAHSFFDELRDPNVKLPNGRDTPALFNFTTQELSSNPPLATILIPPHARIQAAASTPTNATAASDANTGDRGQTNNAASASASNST

SH-SY5Y cells = assay: Neuronal neurite outgrowth assay; format: cell-based, human; settings: 10 μM, 72 h, compared with RA (10 μM)
Excerpt: Differentiated SH-SY5Y cells express neurogenesis-related markers, including growth-associated protein 43 (GAP43), the N-myc gene as well as neuronal polarity marker microtubule-associated protein 2 (MAP-2). GAP43 is an intrinsic determinant of neuronal development and plasticity which regulates axon growth and regeneration[68]^,[69]. N-myc is indispensable to normal neurogenesis in the expansion of progenitor cell populations. MAP-2 regulates neuronal development, structural stability and synaptic plasticity through the formation of axonal and dendritic processes[71]^,[72]. Inhibition of GSK-3β could induce neurogenesis and promote the expressions of the neurogenesis-related markers. Firstly, we used SH-SY5Y cells to study the effect of 16b on neurite outgrowth, using retinoic acid (RA) as a positive control. After incubating with 16b (10 μM) or RA (10 μM) for 72 h, the morphology of differentiated neuronal neurite outgrowth were obtained.
Figure 8. (A) Effect of 16b (10 μM) on neurite outgrowth (72 h). Red arrows indicated cells bearing neurites. […]
SH-SY5Y cells (5 × 10^3) were planted in 96-well plates and cultivated at 37 °C for 24 h. […] After the SH-SY5Y cells were cultivated for 24 h, total RNA was extracted, and quantitative RT-PCR was performed according to the previously reported method.

T1 sequence (Q00535 whole entry): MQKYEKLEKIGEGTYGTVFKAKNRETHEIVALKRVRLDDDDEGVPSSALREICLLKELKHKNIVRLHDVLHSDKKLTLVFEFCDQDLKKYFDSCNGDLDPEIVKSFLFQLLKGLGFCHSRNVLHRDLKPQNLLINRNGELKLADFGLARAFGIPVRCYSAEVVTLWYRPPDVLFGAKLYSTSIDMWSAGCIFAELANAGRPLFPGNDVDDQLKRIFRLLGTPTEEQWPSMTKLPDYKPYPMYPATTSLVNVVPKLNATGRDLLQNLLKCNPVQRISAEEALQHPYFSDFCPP
T1 sequence (Q15078 whole entry partner): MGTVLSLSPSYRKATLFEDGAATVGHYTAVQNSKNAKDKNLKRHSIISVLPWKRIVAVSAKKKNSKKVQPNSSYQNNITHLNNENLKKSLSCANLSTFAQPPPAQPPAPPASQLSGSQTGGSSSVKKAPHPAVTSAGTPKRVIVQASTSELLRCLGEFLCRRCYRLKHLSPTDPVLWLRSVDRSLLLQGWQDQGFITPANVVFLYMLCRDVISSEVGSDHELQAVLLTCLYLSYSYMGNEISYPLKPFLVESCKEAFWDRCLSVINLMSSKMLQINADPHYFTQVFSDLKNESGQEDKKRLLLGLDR

CC(C)C(=O)Nc1n[nH]c2cc(-c3cccnc3)sc12 [Compound 16b, N-(5-(pyridin-3-yl)-1H-thieno[3,2-c]pyrazol-3-yl)isobutyramide]
selectivity over CDK5 (CDK5/p35): low selectivity | selectivity over GSK-3α (GSK-3α): low selectivity | selectivity over CK2 (CK2): moderate selectivity | p-tau/GAPDH ratio (Ser396) ([1]; 5 μM): 0.70 | p-tau/GAPDH ratio (Ser396) ([1]; 10 μM): 0.52 | p-tau/GAPDH ratio (Ser396) ([1]; 20 μM): 0.40 | IC50 (GSK-3β): 3.1 ± 0.1 nM | neurite outgrowth of SH-SY5Y cells (SH-SY5Y cells): substantial ability in inducing SH-SY5Y cells neurite outgrowth

— PMC9225722, “Synthesis and biological evaluation of thieno[3,2-c]pyrazol-3-amine derivatives as potent glycogen synthase kinase 3β inhibitors for Alzheimer’s disease” (Journal of Enzyme Inhibition and Medicinal Chemistry, 2022)
